A melting point compilation (Tetko et al.; mined from patent text by program, amines drawn as free bases though some values may be those of a salt)

melting point [°C] | Structure (SMILES)
> 280 | NNc1nc(Cl)nc2cccc(F)c12
192 | CCOc1ccc2c(c1)C(C)(c1cc(NC(=O)c3cccnc3)ccc1Cl)C(=O)N2S(=O)(=O)c1ccc(C(=O)NC(C)(C)C)cc1OC (stereo unspecified)
138 to 140 | CCOC(=O)c1cc(S(=O)C(F)(F)C(F)F)c(-c2ccc(Cl)cc2)[nH]1 (stereo unspecified)
233 | CC(C)(C)CC(C)(C)c1ccc(Oc2ccc(C(F)(F)F)cc2NC(=O)Nc2cc(C(F)(F)F)cc(C(F)(F)F)c2)c(C(=O)O)c1
156 to 158 | CCOCc1nc2c(N)nc(C)c(C)c2n1CCCC(=O)N1CCOCC1
195 to 198 | CCOc1ccc([N+](=O)[O-])cc1NC(C)=O
118 | OC(=S)Cc1cc(Cl)ccc1Cl
106 to 107 | CN(CCN1CCOCC1)c1noc2cc(OC(=O)NCc3ccccc3)ccc12
170 to 173 | O=C1OC(=O)C(F)=C1F
165 to 166 | O=C(NC[C@@H](O)C(=O)O)OCC1c2ccccc2-c2ccccc21
112 to 115 | CCc1c(C(=O)NN2CCCCC2)nn(-c2ccc(Cl)cc2Cl)c1-c1ccc(Br)cc1
174 to 176 | Fc1ccc(-c2ccn(CC3CCNCC3)c2-c2ccncc2)cc1
162 | CCCOc1ccn2nc(-c3ccccc3)c(-c3ccc(=O)n(C(C)C)n3)c2c1
133 to 135 | COc1cc(C(C)=O)ccc1OCCCCN1CCC(c2n[nH]c3ccccc23)CC1
213 to 214 | COc1cc2c(cc1OC)C(c1ccc([N+](=O)[O-])cc1)NN(C1=NC(=O)C(C)S1)C(C)C2 (stereo unspecified)
200 | Cc1csc(-c2cc(=O)n(C)c3ccc(C(O)(c4ccc(Cl)cc4)c4cncn4C)cc23)n1 (stereo unspecified)
90 to 94 | CCOC(=O)c1cn(-c2ccc3ncccc3c2)cn1
222 to 224 | CCOC(=O)c1cnc2nn(C)cc2c1O
163 to 170 | O=[N+]([O-])c1ccc(Oc2ccc3c(c2)OCC(c2ccccc2)O3)nc1 (stereo unspecified)
97 to 98 | O=CCCOC(c1ccccc1)(c1ccccc1)c1ccccc1
159 to 160 | COc1ccc2cc3c(N)nn(-c4ccccc4)c3nc2c1
165 | COC(=O)C1Cc2c(nc(C)n2-c2ccc(N(C)C)c(C)c2)CN1C(=O)C(c1ccccc1)c1ccccc1 (stereo unspecified)

melting point [°C] | Structure (SMILES)
274 to 276 | C=C1C(=C)C2C(CCC3(C)C2CCC3(O)C(C)=O)C2(C)CCC(=O)C=C12 (stereo unspecified)
206 to 210 | COc1ccc(-c2nc(SC(C)C)[nH]c2-c2ccncc2)cc1
106 to 108 | COC(=O)c1ccc(S(=O)(=O)C[N+](=O)[O-])cc1
200 to 202 | O=CC=Cc1ccc(O)c(O)c1
> 250 | CCCc1c2occ(C(=O)O)cc-2c(=O)c2cc(C(=O)O)sc12
174 to 175 | CC(C)(C)c1cc(CCc2ccccc2NC(=O)NC2CCN(Cc3ccc(F)cc3)CC2)cc(C(C)(C)C)c1O
83 to 84 | O=Cc1ccc(C(=O)NCC(F)(F)F)cc1
198 to 200 | Cc1nc(N)sc1-c1ccnc(CC2CC2)n1
112 | CCOC(=O)c1ccc(OCC2CN(c3nnc(C)s3)CCO2)cc1 (stereo unspecified)
160 to 166 | CCCCc1nc2c(N)nc3ccccc3c2n1CCCCNC(=O)Nc1cccc(NC(=O)NCCCCn2c(CCCC)nc3c(N)nc4ccccc4c32)c1
144 to 146 | O=C(O)c1ccc(N(Cc2cncs2)c2ccc(OC(F)F)c(OC(F)F)c2)cc1
55 to 56 | CCN1C(=O)CN(C(=O)OCc2ccccc2)Cc2cc(OC)c([N+](=O)[O-])cc21
152 to 153 | c1cncc(Cn2c(-c3ccc4c(c3)OCO4)nc3ccccc32)c1
96 to 97 | COc1cccc(CC(=O)O)c1OCCCc1cn(-c2ncc(C(F)(F)F)cc2Cl)nc1C(C)C
127 to 129 | NCc1cccc(CNC(N)=O)c1
147 to 148 | CC(C)(C)OC(=O)NC(CC#N)COc1noc2ccc(Cl)cc12 (stereo unspecified)
92 to 94 | CNC#CCC1=Cc2ccccc2Sc2ccc(Cl)cc21
121 to 125 | CCCc1c(OCc2ccc(C=CC(=O)OC)cc2)ccc(C(C)=O)c1O
139 to 141 | CC(Oc1ccc(Oc2cnc3cc(Cl)ccc3n2)cc1)C(=O)Nc1ccc(OC(F)(F)C(Cl)(Cl)Cl)cc1 (stereo unspecified)
148 to 151 | O=C(c1cc(Cl)nc(Cl)c1)n1ccnc1
106 to 107 | CCc1cccc(C)c1CNc1nc(OC)cc2c1nc(C)n2C
158 to 160 | CCN1C(=O)Cc2cc(C(=O)c3cccs3)ccc21

melting point [°C] | Structure (SMILES)
214 to 215 | CC(C)c1cccc(C(C)C)c1NC(=O)NC1CCc2ccccc2C1 (stereo unspecified)
225 to 227 | Cc1cccnc1-c1cc2cccnc2c(=O)[nH]1
118 to 119 | O=C(c1ccc(Cl)c([N+](=O)[O-])c1)c1nccs1
129 to 130 | COC(=O)Nc1ccc(Br)cc1I
114 to 116 | COc1ccc(C#N)nc1C
290 to 293 | CCOC(=O)Cc1c[nH]c2cc(C(F)(F)F)nn2c1=O
109 to 111 | O=C(c1cc(-c2ccccc2)no1)C1CCCCC1N1CCCC1 (stereo unspecified)
136 to 139 | Nc1nc(Cc2ccccc2)ncc1C=S
145 | O=C(N1CCOCC1)n1nnc2cc(Cl)c(Cl)cc21
88 to 90 | N#Cc1ccc(Cl)cc1NC(CCO)c1ccccc1 (stereo unspecified)
232 | COC(=O)c1cccc(-c2c(C)c(C(=O)c3ccc(N)c(C(=O)OC)c3)n3ccccc23)c1
155 to 157 | CCCCCCCN(CCO)c1ccc2c(c1)Oc1cc(=C(C#N)C#N)c3ccccc3c1=N2
150 to 152 | CC(=O)O[C@H]1C=C(Br)[C@H](O)[C@@H](Br)[C@@H]1O
139 to 140 | O=C(COc1ccc(C(=O)C(=O)O)cc1)NC1CCCCCCC1
130 | O=P(c1ccccc1)(c1ccccc1)N1C[C@@H](P(c2ccccc2)c2ccccc2)C[C@H]1CP(c1ccccc1)c1ccccc1
215 to 216 | CC(=O)Nc1ccc(/C=C/C(=O)NCC(=O)N(C)c2ccc(C)c(CO)c2C)cn1
263 to 264 | CCOC(=O)Nc1cc(C)cc(Nc2c3cccc(C)c3nc3c(C(=O)NCCN(C)C)cccc23)c1
170 to 171 | O=C1Nc2cc(-c3ccccc3)ccc2OC1CCO (stereo unspecified)
251 to 253 | CC(=O)Nc1nc(C)c(-c2ccc(S(C)(=O)=O)cc2)s1
141 to 143 | O=c1oc2cc(O)c(F)cc2s1
228 to 229 | CS(=O)(=O)N1CCC(NC(=O)NC23CC4CC(CC(C4)C2)C3)CC1
80 to 83 | CCCc1c(OCCC(C)(C)C(=O)NCCCCc2cccnc2)ccc(C(C)=O)c1O

Structure (SMILES) | melting point [°C]
O=C1NC(O)C2CN(Cc3ccccc3)CC12 (stereo unspecified) | 138
Oc1cccnc1CC1(O)CN2CCC1CC2 (stereo unspecified) | 270 to 272
CN1CC(CCN2CCOCC2)Oc2ncccc2C1=S (stereo unspecified) | 152 to 153
CCS(=O)(=O)Nc1ccc(OC(=O)NC)cc1C | 146 to 148
CC(CCCc1ccccc1)c1cc2c(cc1O)C1=C(CCCC1=O)C(C)(C)O2 (stereo unspecified) | 186 to 188
